The text below walks through data of PubChem BioAssay AID179 (DTP/NCI, 2004).

A word on the pEC50: it is the EC50 on a negative log10 scale, so that one unit is a factor of ten. A word on the pIC50: it is the negative decadic logarithm of the IC50, by convention in mol/L.

pEC50, pIC50: −log10 of the molar value. Calls of active or inactive are those of the source.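 Rule for the calls: active = compounds giving half or more protection of infected cells from virus-caused growth loss, again on retest; inactive = the rest.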

The test system of the assay is CEM cells HIV-1 protection, formazan growth assay. In words: NCI AIDS Antiviral Assay. The conditions noted are these: for pIC50: measured here: growth of uninfected CEM cells. The method in brief:
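Protection of CEM cells against HIV-1 was scored from cell growth (soluble formazan) across five concentrations, with parallel uninfected cells. Lack of protection may reflect toxicity.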

`N#CSCC1COc2ccccc2O1` (centres undefined): the pEC50 was under 3.70 and the pIC50 was 5.91.
`O=C1Sc2ccccc2C(=O)N2CCSC12` (centres undefined): the pEC50 was 3.90 and the pIC50 was under 3.70.
On to `CC(C)CCC[C@@H](C)C1CCC2[C@@H]3CCC4C[C@@H](NS(C)(=O)=O)CC[C@]4(C)C3CC[C@@]21C` (some centres undefined), for which the pEC50 was under 3.70 and the negative-log IC50 (pIC50) was under 3.70.
As to `CCOC(=O)CC1CN(Cc2ccccc2)CCC1=O` (centres undefined), the outcome was inactive.
As to `Cc1cc(C)nc(NS(=O)(=O)c2ccc(NC(=O)c3cccc4c(Nc5ccc(S(=O)(=O)Nc6cc(C)on6)cc5)c5ccccc5nc34)cc2)n1`, the pEC50 is under 4.45 and the pIC50 is under 4.45.
Take `N=C(N)SC12CC3CC(CC(C3)C1)C2`: the pEC50 was under 3.70 and the pIC50 is 3.86.
The corresponding values for `O=S(=O)(NCCSSCCNS(=O)(=O)c1cccs1)c1cccs1` are under 3.70 and 4.70.
The corresponding values for `Cc1nn(C(=O)Cc2ccccc2)c2c1C(c1ccccc1)SC(N)=N2` (centres undefined) are 3.83 and 3.71.
With `CN1CCN=C1c1ccc(NC(=O)c2ccc(C(=O)Nc3ccc(C4=NCCN4C)cc3)cc2)cc1`, the pEC50 was under 3.70 and the pIC50 is 4.13.
`N#C/C(=C\c1cccc([N+](=O)[O-])c1)C(=O)c1ccccc1`: the pEC50 is under 4.10 and the negative-log IC50 (pIC50) was 4.39.
The corresponding values for `Cn1nc(-c2ccc(Cl)cc2)[n+]([O-])c2c(=O)n(C)c(=O)nc1-2` are under 3.70 and 5.48.
The corresponding values for `COc1cccc(C2CO2)c1` (centres undefined) are under 3.70 and 3.82.
Consider `CC(=O)OC12CC[N+]3(C)CCCCC3C1=Nc1ccccc12` (centres undefined), for which the pEC50 was under 3.23 and the pIC50 was 3.32.
As for `Cc1ccc(S(=O)(=O)Nc2ccccc2SSc2ccccc2NS(=O)(=O)c2ccc(C)cc2)cc1`, the pEC50 is under 3.70 and the pIC50 was 5.34.
As to `Cn1c(=O)c2[nH]c(NN)nc2n(C)c1=O`, the pEC50 is under 3.70 and the negative logarithm of the IC50 (pIC50) was 3.98.
Turning to `O=C1/C=C(/c2ccc(O)cc2)[C@H](O)Cc2ccc(OC3OC(CO)C(O)C(O)C3O)cc2O1` (some centres undefined) (tested in a mixture with another compound), the pEC50 was under 3.60 and the pIC50 was under 3.60.
On to `CC1=C2c3ccccc3N(C(=O)/C=C/C(=O)O)[C@H]2[C@H]2C(=O)OC(=O)[C@H]2C1`, for which the pEC50 was under 3.70 and the negative logarithm of the IC50 (pIC50) was 3.82.
The corresponding values for `N#Cc1c(=O)n(O)c2ccccc2[n+]1[O-]` are under 3.70 and under 3.70.
Take `c1ccc(C2=NN(c3ccccc3)CC2)cc1`: the outcome was inactive.
On the same count and under the same terms, as for `CC(C)/C(Cl)=N/OC(NC(=O)Nc1ccc(Cl)c(Cl)c1)(C(F)(F)F)C(F)(F)F`, the entry is “inactive”.
As for `CCOC(=O)C1=C(OC(OCC)C(C)[Se]c2ccccc2)CCC1` (centres undefined), the negative-log EC50 (pEC50) was under 4.33 and the negative-log IC50 (pIC50) was 4.37.
On to `N#CC(C(=O)C(=O)C(C#N)c1ccc(Br)cc1)c1ccc(Br)cc1` (centres undefined), for which the outcome was inactive.
For the compound `Cc1cccc2c(N)c3cccc(C(=O)NCCN(C)C)c3nc12`, the pEC50 was under 3.70 and the pIC50 is 7.20.
Consider `CC1C(c2ccccc2O)c2cc3c(cc2OC1N1CCCC1)OCO3` (centres undefined), for which the outcome was inactive.
The same measure, in the same setting: then `COc1c(Cl)cc(S(=O)O)cc1Cl`, with “inactive”.
Turning to `CCc1cccc(C)c1NC(=O)CCc1n[nH]c(=S)o1`, the pEC50 is under 3.21 and the negative-log IC50 (pIC50) was under 3.21.
As for `O=C(/C(=C\C(=O)c1cccs1)c1ccsc1)c1ccc(Br)cc1`, the outcome was inactive.
Take `CC1CCC2C(C(=O)O[C@H]3C4CCO[C@@H](OC5OC(CO)C(O)C(O)C5O)C4[C@@]4(CO)O[C@@H]34)=CO[C@@H](OC3OC(CO)C(O)C(O)C3O)C12` (some centres undefined): the pEC50 is under 3.70 and the pIC50 was under 3.70.
